The text below walks through data of patent publication US7229996B2, “Rifamycin derivatives” (Cumbre Pharmaceuticals Inc., priority 2004, dated 2007).

Holding throughout (assay): MIC by microbroth dilution (NCCLS)
Holding throughout (assay type): cell-based

Assay [1] concerns Enterococcus faecalis ATCC29212. The settings on record: E. faecalis ATCC29212, Rif-S; BHI Broth.
Assay [2] concerns Streptococcus pneumoniae ATCC6303. The settings on record: S. pneumoniae ATCC6303, Rif-S; THY Broth with catalase, 5% CO2.
Assay [3] relates to Staphylococcus aureus ATCC29213 RpoB^D471Y. The method, then:
(§1) Representative compounds were assayed for antimicrobial activity as follows: Minimum Inhibitory Concentrations (MICs) were determined by the microbroth dilution method as per NCCLS guidelines (National Committee for Clinical Laboratory Standards 2000), except that all growth incubations were conducted at 37° C. Bacterial cultures were tested in the following bacteriological media: S. aureus, S. epidermidis, and E. coli in Cation-Adjusted Mueller-Hinton Broth, S. pneumoniae in THY Broth supplemented with 1 mg/mL catalase under 5% CO2 atmosphere, S. pyogenes in THY Broth, E. faecalis in BHI Broth, H. influenzae in BHI Broth supplemented with 0.75 μL of 1 mg/mL NAD and 150 μL of 1 mg/ml hematin per 5 mL, and M. smegmatis in Middlebrook Broth plus ADC Enrichment.
(§2) S. aureus ATCC 29213 RpoB^H481Y is a rifampin-resistant strain with a mutation in RNA polymerase. […] S. aureus ATCC 29213 GyrA^S84LParC^S80F is a quinolone-resistant strain with mutations to both DNA gyrase and topoisomerase IV.

The subject of assay [4] is Staphylococcus aureus ATCC29213 GyrA^S84L ParC^S80F. The settings on record: S. aureus ATCC29213 GyrA^S84L ParC^S80F, FQ-R. How it is done: as §1, §2
The subject of assay [5] is Staphylococcus aureus ATCC29213 RpoB^H481Y. How it is done: as §1, §2
For assay [6], the system named is Staphylococcus epidermidis ATCC 12228. The settings on record: S. epidermidis ATCC 12228, Rif-S.
The subject of assay [7] is Escherichia coli ATCC25922. The settings on record: E. coli ATCC25922, Rif-S; Cation-Adjusted Mueller-Hinton Broth.
Assay [8] concerns Haemophilus influenzae ATCC10211. The settings on record: H. influenzae ATCC10211, Rif-S; BHI Broth with NAD and hematin.
Assay [9] has as its system Staphylococcus aureus ATCC29213. The settings on record: S. aureus ATCC29213, Rif-S; Cation-Adjusted Mueller-Hinton Broth, 37° C.
Assay [10] concerns Streptococcus pyogenes ATCC19615. The settings on record: S. pyogenes ATCC19615, Rif-S; THY Broth.
The mark [11] stands for this setting: Staphylococcus aureus, ATCC29213.

Values after ≈ are worked out from the molar mass of the structure shown. Bounds are passed on as bounds.

By MIC is commonly meant the lowest concentration found to suppress growth. Read a low MIC as inhibition by little substance. In the case of `CO[C@H]1/C=C/O[C@@]2(C)Oc3c(C)c(O)c4c(O)c(c(/C=N/N5CCN(C)CC5)c(O)c4c3C2=O)NC(=O)/C(C)=C\C=C\[C@H](C)[C@H](O)[C@@H](C)[C@@H](O)[C@@H](C)[C@H](OC(C)=O)[C@@H]1C` [Rifampin], the “Antimicrobial activity (MIC range)” value in assay [1] was 0.98 µg/mL; in assay [2] it was 0.061 µg/mL; in assay [3] (S. aureus ATCC29213 RpoB^D471Y, Rif-R) it was 8 µg/mL; in [4], 0.008 µg/mL; in assay [5] (S. aureus ATCC29213 RpoB^H481Y, Rif-R), >64 µg/mL; in assay [6], 0.03 µg/mL. For the same compound, the “Antimicrobial activity (MIC range)” value in assay [7] turned out to be 16 µg/mL; in assay [8], 0.24 µg/mL; in [9], 0.008 µg/mL; in assay [10] it was 0.013 µg/mL. In addition, the minimal inhibitory concentration (MIC) in assay [3] (setting [11]) is 8 µg/mL (≈ 9.72 µM); in [5] (setting [11]), > 64 µg/mL.
